Values quoted from earlier work in publication PMC2766259 (Synapse (New York, N.Y.), 2009).
Read-outs that look alike come from different tables or passages of the source.

Legend:
[1] = system: α4β2* nAChRs; details: cited from earlier work
[2] = system: α4β2* nAChRs; details: cited from earlier work; remark: listed apart in the source
[3] = system: α4β2* nAChRs; details: human nAChR imaging; ref Scheffel et al., 2000; Villemagne et al., 1998; cited from earlier work
[4] = system: α4β2* nAChRs; details: in rats; ref Saji et al., 2002; cited from earlier work
[5] = system: α4β2* nAChRs; details: acute treatment, baboon, ref Kassiou et al., 2001, cited from earlier work
[6] = system: α4β2* nAChRs; details: human smokers, 2-[^18F]FA; ref Brody et al., 2006; cited from earlier work

For `[76Br]c1ccc(C2CC3CCC2N3)cn1` (stereo not drawn) [[^76Br]BrPH, [^76Br]norchlorobromoepibatidine, reference compound], the “Conclusion: safety and efficacy” value ([1]; ref Kassiou et al., 2002) is given as “[^76Br]BrPH is safe and efficacious in baboons”.

For `[18F]c1ncccc1OC[C@@H]1CCN1` [2-[^18F]FA, 2-[^18F]fluoro-3-(2(S)-azetidinylmethoxy)pyridine, reference compound], the “Conclusion: safety and efficacy” value ([2]; 2 monkeys, ref Kimes et al., 2003) is listed as “• 2-[^18F]FA is safe and efficacious in monkeys and humans”, the “Conclusion: peaks” value ([2]; a monkey, ref Dollé et al., 1999) is listed as “• In baboons 2-[^18F]FA has lower peaks than [^18F]fluoronorchloroepibatidine. In a monkey 2-[^18F]FA has lower peaks than 5-[^123I]IA” and the “Conclusion: safety and efficacy” value ([2]; ref Chefer et al., 1999) is listed as “• 2-[^18F]FA is safe and efficacious for brain imaging in monkeys”. For the same compound, the “Conclusion: peaks” value ([1]; in vivo) was “• In baboons 2-[^18F]FA has lower peaks than [^18F]fluoronorchloroepibatidine. In a monkey 2-[^18F]FA has lower peaks than 5-[^123I]IA”.

In the case of `[11CH3]N1CCC[C@H]1c1cccnc1` [[^11C](S)-(−)-nicotine, reference compound], the non-specific binding [3] is listed as “high degree of non-specific binding”.

For `CN1CCC[C@H]1c1cccnc1` [(−)-nicotine], the “effect on accumulation of 5-[^123I]IA in brain” value [4] is given as “blocked in all brain regions”, the “reduction in α4β2* nAChR uptake” value ([5]; frontal cortex) is given as 32% and the “reduction in α4β2* nAChR uptake” value ([5]; thalamus) is given as 52%. For the same compound, the “plasma nicotine level at uptake of half the α4β2* nAChRs” value [6] was 0.87 ng/mL.

In the case of `[18F]c1ccc(OC[C@@H]2CCN2)cn1` [6-[^18F]FA, 6-[^18F]fluoro-3-(2(S)-azetidinylmethoxy)pyridine], the “Conclusion: safety and efficacy” value ([2]; ref Horti et al., 2000) is given as “• 6-[^18F]FA is safe and efficacious for brain imaging in monkeys”.

In the case of `[18F]c1cc(-c2cc(OC[C@@H]3CCN3)cnc2Cl)ccn1` [[^18F]NIDA522131, chloro-3-((2-(S)-azetidinyl)methoxy)-5-(2-[^18F]fluoropyridin-4-yl)pyridine], the “Conclusion: safety and efficacy” value ([2]; ref Chefer et al., 2008) is listed as “• [^18 F]NIDA522131 is safe and efficacious for brain imaging in monkeys”.
